# According to ChEMBL document CHEMBL3885881, “DrugMatrix”:
# Organism: Rattus norvegicus
# Experiment: DrugMatrix - Regimen: Daily Repeat
# Assay type: toxicity, organism-based, Sprague-Dawley
# Design: regimen Daily Repeat, gender Male, age 6-8 weeks
# Details: in vivo, po, route oral GAVAGE, […]; for ABSOLUTE BASOPHIL / ABSOLUTE EOSINOPHIL / ABSOLUTE LYMPHOCYTE / ABSOLUTE MONOCYTE / ABSOLUTE SEGMENTED NEUTROPHIL / BASOPHIL / EOSINOPHIL / ERYTHROCYTE COUNT / HEMATOCRIT / HEMOGLOBIN / LEUKOCYTE COUNT / LYMPHOCYTE / MEAN CORPUSCULAR HEMOGLOBIN / MEAN CORPUSCULAR HEMOGLOBIN CONCENTRATION / MEAN CORPUSCULAR VOLUME / MONOCYTE / NEUTROPHIL / NUCLEATED RED BLOOD CELLS / PLATELET COUNT: tissue Blood; for ALANINE AMINOTRANSFERASE / ALBUMIN / ALKALINE PHOSPHATASE / ASPARTATE AMINOTRANSFERASE / BLOOD UREA NITROGEN / CARBON DIOXIDE / CHLORIDE / CHOLESTEROL / CREATINE PHOSPHOKINASE / CREATININE / GLUCOSE / LACTATE DEHYDROGENASE / LIPASE / PHOSPHORUS / POTASSIUM / SODIUM / TOTAL BILIRUBIN / TOTAL PROTEIN / URIC ACID: tissue Plasma
# [1] = 40 mg/kg, 72 h, dose level Low, time 3 day
# [2] = 40 mg/kg, 120 h, dose level Low, time 5 day
# [3] = 450 mg/kg, 72 h, dose level High, time 3 day
# [4] = 450 mg/kg, 120 h, dose level High, time 5 day
structure (smiles),measurement,setting,value
CC(c1cc2ccccc2s1)N(O)C(N)=O (configuration not stated) [ZILEUTON],ABSOLUTE BASOPHIL,[1],0 CELLS/uL
same,ABSOLUTE EOSINOPHIL,[1],103.33 CELLS/uL
same,ABSOLUTE LYMPHOCYTE,[1],13682 CELLS/uL
same,ABSOLUTE MONOCYTE,[1],0 CELLS/uL
same,ABSOLUTE SEGMENTED NEUTROPHIL,[1],1348 CELLS/uL
same,BASOPHIL,[1],0%
same,EOSINOPHIL,[1],0.67%
same,ERYTHROCYTE COUNT,[1],5.58 x10E6/uL
same,HEMATOCRIT,[1],34.97%
same,HEMOGLOBIN,[1],13.77 G/DL
same,LEUKOCYTE COUNT,[1],15.13 x10E3/uL
same,LYMPHOCYTE,[1],90.33%
same,MEAN CORPUSCULAR HEMOGLOBIN,[1],24.67 pg
same,MEAN CORPUSCULAR HEMOGLOBIN CONCENTRATION,[1],39.37 G/DL
same,MEAN CORPUSCULAR VOLUME,[1],62.67 fL
same,MONOCYTE,[1],0%
same,NEUTROPHIL,[1],9%
same,NUCLEATED RED BLOOD CELLS,[1],0 /100WBC
same,PLATELET COUNT,[1],1217.67 x10E3/uL
same,ALANINE AMINOTRANSFERASE,[1],75.33 u/L
same,ALBUMIN,[1],3.93 G/DL
same,ALKALINE PHOSPHATASE,[1],442 u/L
same,ASPARTATE AMINOTRANSFERASE,[1],87.67 u/L
same,BLOOD UREA NITROGEN,[1],14 mg/dL
same,CARBON DIOXIDE,[1],32.33 mmol/L
same,CHLORIDE,[1],100 MEQ/L
same,CHOLESTEROL,[1],66.67 mg/dL
same,CREATINE PHOSPHOKINASE,[1],201.33 u/L
same,CREATININE,[1],0.14 mg/dL
same,GLUCOSE,[1],160 mg/dL
same,LACTATE DEHYDROGENASE,[1],148.33 u/L
same,LIPASE,[1],10.67 u/L
same,PHOSPHORUS,[1],10.8 mg/dL
same,POTASSIUM,[1],6.7 MEQ/L
same,SODIUM,[1],140.3 MEQ/L
same,TOTAL BILIRUBIN,[1],0.17 mg/dL
same,TOTAL PROTEIN,[1],5.37 G/DL
same,URIC ACID,[1],1.53 mg/dL
same,ABSOLUTE BASOPHIL,[2],0 CELLS/uL
same,ABSOLUTE EOSINOPHIL,[2],0 CELLS/uL
same,ABSOLUTE LYMPHOCYTE,[2],9935.67 CELLS/uL
same,ABSOLUTE MONOCYTE,[2],247 CELLS/uL
same,ABSOLUTE SEGMENTED NEUTROPHIL,[2],1084 CELLS/uL
same,BASOPHIL,[2],0%
same,EOSINOPHIL,[2],0%
same,ERYTHROCYTE COUNT,[2],5.6 x10E6/uL
same,HEMATOCRIT,[2],34.1%
same,HEMOGLOBIN,[2],13.83 G/DL
same,LEUKOCYTE COUNT,[2],11.27 x10E3/uL
same,LYMPHOCYTE,[2],89%
same,MEAN CORPUSCULAR HEMOGLOBIN,[2],24.77 pg
same,MEAN CORPUSCULAR HEMOGLOBIN CONCENTRATION,[2],40.57 G/DL
same,MEAN CORPUSCULAR VOLUME,[2],60.97 fL
same,MONOCYTE,[2],2%
same,NEUTROPHIL,[2],9%
same,NUCLEATED RED BLOOD CELLS,[2],0 /100WBC
same,PLATELET COUNT,[2],1094 x10E3/uL
same,ALANINE AMINOTRANSFERASE,[2],62 u/L
same,ALBUMIN,[2],4.23 G/DL
same,ALKALINE PHOSPHATASE,[2],479.33 u/L
same,ASPARTATE AMINOTRANSFERASE,[2],79.33 u/L
same,BLOOD UREA NITROGEN,[2],13.67 mg/dL
same,CARBON DIOXIDE,[2],32 mmol/L
same,CHLORIDE,[2],100.67 MEQ/L
same,CHOLESTEROL,[2],62 mg/dL
same,CREATINE PHOSPHOKINASE,[2],165.33 u/L
same,CREATININE,[2],0.2 mg/dL
same,GLUCOSE,[2],145 mg/dL
same,LACTATE DEHYDROGENASE,[2],111.67 u/L
same,LIPASE,[2],11 u/L
same,PHOSPHORUS,[2],10.6 mg/dL
same,POTASSIUM,[2],6.47 MEQ/L
same,SODIUM,[2],141.17 MEQ/L
same,TOTAL BILIRUBIN,[2],0.17 mg/dL
same,TOTAL PROTEIN,[2],5.67 G/DL
same,URIC ACID,[2],1.47 mg/dL
same,ABSOLUTE BASOPHIL,[3],0 CELLS/uL
same,ABSOLUTE EOSINOPHIL,[3],0 CELLS/uL
same,ABSOLUTE LYMPHOCYTE,[3],15031 CELLS/uL
same,ABSOLUTE MONOCYTE,[3],0 CELLS/uL
same,ABSOLUTE SEGMENTED NEUTROPHIL,[3],1769 CELLS/uL
same,BASOPHIL,[3],0%
same,EOSINOPHIL,[3],0%
same,ERYTHROCYTE COUNT,[3],5.39 x10E6/uL
same,HEMATOCRIT,[3],32.93%
same,HEMOGLOBIN,[3],13.6 G/DL
same,LEUKOCYTE COUNT,[3],16.8 x10E3/uL
same,LYMPHOCYTE,[3],89.33%
same,MEAN CORPUSCULAR HEMOGLOBIN,[3],25.27 pg
same,MEAN CORPUSCULAR HEMOGLOBIN CONCENTRATION,[3],41.33 G/DL
same,MEAN CORPUSCULAR VOLUME,[3],61.1 fL
same,MONOCYTE,[3],0%
same,NEUTROPHIL,[3],10.67%
same,NUCLEATED RED BLOOD CELLS,[3],0.33 /100WBC
same,PLATELET COUNT,[3],1249 x10E3/uL
same,ALANINE AMINOTRANSFERASE,[3],87.67 u/L
same,ALBUMIN,[3],3.67 G/DL
same,ALKALINE PHOSPHATASE,[3],458 u/L
same,ASPARTATE AMINOTRANSFERASE,[3],128 u/L
same,BLOOD UREA NITROGEN,[3],17.67 mg/dL
same,CARBON DIOXIDE,[3],25.33 mmol/L
same,CHLORIDE,[3],103.67 MEQ/L
same,CHOLESTEROL,[3],65.67 mg/dL
same,CREATINE PHOSPHOKINASE,[3],774.33 u/L
same,CREATININE,[3],0.18 mg/dL
same,GLUCOSE,[3],148.33 mg/dL
same,LACTATE DEHYDROGENASE,[3],301.67 u/L
same,LIPASE,[3],10.67 u/L
same,PHOSPHORUS,[3],12.57 mg/dL
same,POTASSIUM,[3],5.93 MEQ/L
same,SODIUM,[3],142.9 MEQ/L
same,TOTAL BILIRUBIN,[3],0.2 mg/dL
same,TOTAL PROTEIN,[3],5.13 G/DL
same,URIC ACID,[3],1.47 mg/dL
same,ABSOLUTE BASOPHIL,[4],0 CELLS/uL
same,ABSOLUTE EOSINOPHIL,[4],45 CELLS/uL
same,ABSOLUTE LYMPHOCYTE,[4],16299.33 CELLS/uL
same,ABSOLUTE MONOCYTE,[4],207.67 CELLS/uL
same,ABSOLUTE SEGMENTED NEUTROPHIL,[4],1114.67 CELLS/uL
same,BASOPHIL,[4],0%
same,EOSINOPHIL,[4],0.33%
same,ERYTHROCYTE COUNT,[4],5.62 x10E6/uL
same,HEMATOCRIT,[4],34.17%
same,HEMOGLOBIN,[4],13.87 G/DL
same,LEUKOCYTE COUNT,[4],17.67 x10E3/uL
same,LYMPHOCYTE,[4],92.33%
same,MEAN CORPUSCULAR HEMOGLOBIN,[4],24.73 pg
same,MEAN CORPUSCULAR HEMOGLOBIN CONCENTRATION,[4],40.6 G/DL
same,MEAN CORPUSCULAR VOLUME,[4],60.87 fL
same,MONOCYTE,[4],1%
same,NEUTROPHIL,[4],6.33%
same,NUCLEATED RED BLOOD CELLS,[4],0 /100WBC
same,PLATELET COUNT,[4],1205.33 x10E3/uL
same,ALANINE AMINOTRANSFERASE,[4],64.33 u/L
same,ALBUMIN,[4],4.1 G/DL
same,ALKALINE PHOSPHATASE,[4],388 u/L
same,ASPARTATE AMINOTRANSFERASE,[4],79.33 u/L
same,BLOOD UREA NITROGEN,[4],16 mg/dL
same,CARBON DIOXIDE,[4],37.67 mmol/L
same,CHLORIDE,[4],99.33 MEQ/L
same,CHOLESTEROL,[4],79 mg/dL
same,CREATINE PHOSPHOKINASE,[4],125 u/L
same,CREATININE,[4],0.15 mg/dL
same,GLUCOSE,[4],142 mg/dL
same,LACTATE DEHYDROGENASE,[4],75 u/L
same,LIPASE,[4],10.33 u/L
same,PHOSPHORUS,[4],10.97 mg/dL
same,POTASSIUM,[4],6.65 MEQ/L
same,SODIUM,[4],142.6 MEQ/L
same,TOTAL BILIRUBIN,[4],0.2 mg/dL
same,TOTAL PROTEIN,[4],5.8 G/DL
same,URIC ACID,[4],1.7 mg/dL
